Experiments:
[1] = refractive index (Na D-line) (dimensionless); wn = mass fraction of the nth substance listed; conditions: 100 kPa, Liquid, Standard Abbe refractometry
[2] = wn = mass fraction of the nth substance listed; conditions: for surface tension liquid-gas: Maximal bubble pressure; for mass density: 100 kPa, Liquid, Vibrating tube method

CCC[n+]1ccn(C)c1.N[C@@H](CO)C(=O)[O-] [1-methyl-3-propylimidazolium L-serinate] + O
Conditions | mass density [kg/m3] | refractive index | surface tension liquid-gas [mN/m]
[1], 298.15 K, w2 = 0.00614 | – | 1.5158 | –
[1], 298.15 K, w2 = 0.00766 | – | 1.5154 | –
[1], 298.15 K, w2 = 0.00917 | – | 1.5149 | –
[1], 298.15 K, w2 = 0.01069 | – | 1.5144 | –
[1], 298.15 K, w2 = 0.01217 | – | 1.514 | –
[1], 303.15 K, w2 = 0.00614 | – | 1.5145 | –
[1], 303.15 K, w2 = 0.00766 | – | 1.514 | –
[1], 303.15 K, w2 = 0.00917 | – | 1.5135 | –
[1], 303.15 K, w2 = 0.01069 | – | 1.5131 | –
[1], 303.15 K, w2 = 0.01217 | – | 1.5125 | –
[1], 308.15 K, w2 = 0.00614 | – | 1.5131 | –
[1], 308.15 K, w2 = 0.00766 | – | 1.5126 | –
[1], 308.15 K, w2 = 0.00917 | – | 1.5119 | –
[1], 308.15 K, w2 = 0.01069 | – | 1.5115 | –
[1], 308.15 K, w2 = 0.01217 | – | 1.5109 | –
[1], 313.15 K, w2 = 0.00614 | – | 1.5118 | –
[1], 313.15 K, w2 = 0.00766 | – | 1.5113 | –
[1], 313.15 K, w2 = 0.00917 | – | 1.5106 | –
[1], 313.15 K, w2 = 0.01069 | – | 1.5102 | –
[1], 313.15 K, w2 = 0.01217 | – | 1.5095 | –
[1], 318.15 K, w2 = 0.00614 | – | 1.5106 | –
[1], 318.15 K, w2 = 0.00766 | – | 1.5099 | –
[1], 318.15 K, w2 = 0.00917 | – | 1.5092 | –
[1], 318.15 K, w2 = 0.01069 | – | 1.5087 | –
[1], 318.15 K, w2 = 0.01217 | – | 1.5081 | –
[1], 323.15 K, w2 = 0.00614 | – | 1.5094 | –
[1], 323.15 K, w2 = 0.00766 | – | 1.5086 | –
[1], 323.15 K, w2 = 0.00917 | – | 1.5078 | –
[1], 323.15 K, w2 = 0.01069 | – | 1.5072 | –
[1], 323.15 K, w2 = 0.01217 | – | 1.5065 | –
[1], 328.15 K, w2 = 0.00614 | – | 1.5081 | –
[1], 328.15 K, w2 = 0.00766 | – | 1.5072 | –
[1], 328.15 K, w2 = 0.00917 | – | 1.5063 | –
[1], 328.15 K, w2 = 0.01069 | – | 1.5056 | –
[1], 328.15 K, w2 = 0.01217 | – | 1.505 | –
[1], 333.15 K, w2 = 0.00614 | – | 1.5068 | –
[1], 333.15 K, w2 = 0.00766 | – | 1.5058 | –
[1], 333.15 K, w2 = 0.00917 | – | 1.5049 | –
[1], 333.15 K, w2 = 0.01069 | – | 1.5042 | –
[1], 333.15 K, w2 = 0.01217 | – | 1.5035 | –
[1], 338.15 K, w2 = 0.00614 | – | 1.5054 | –
[1], 338.15 K, w2 = 0.00766 | – | 1.5044 | –
[1], 338.15 K, w2 = 0.00917 | – | 1.5036 | –
[1], 338.15 K, w2 = 0.01069 | – | 1.5028 | –
[1], 338.15 K, w2 = 0.01217 | – | 1.5021 | –
[2], 298.15 K, w2 = 0.00636 | 1181.69 | – | –
[2], 298.15 K, w2 = 0.00641 | – | – | 50.2
[2], 298.15 K, w2 = 0.00785 | 1181.73 | – | –
[2], 298.15 K, w2 = 0.00791 | – | – | 50.8
[2], 298.15 K, w2 = 0.00939 | 1181.78 | – | –
[2], 298.15 K, w2 = 0.00942 | – | – | 51.7
[2], 298.15 K, w2 = 0.0109 | 1181.82 | – | –
[2], 298.15 K, w2 = 0.01091 | – | – | 52.5
[2], 298.15 K, w2 = 0.0124 | 1181.86 | – | –
[2], 298.15 K, w2 = 0.01241 | – | – | 53.2
[2], 303.15 K, w2 = 0.00636 | 1178.52 | – | –
[2], 303.15 K, w2 = 0.00641 | – | – | 49.9
[2], 303.15 K, w2 = 0.00785 | 1178.56 | – | –
[2], 303.15 K, w2 = 0.00791 | – | – | 50.5
[2], 303.15 K, w2 = 0.00939 | 1178.61 | – | –
[2], 303.15 K, w2 = 0.00942 | – | – | 51.4
[2], 303.15 K, w2 = 0.0109 | 1178.65 | – | –
[2], 303.15 K, w2 = 0.01091 | – | – | 52.1
[2], 303.15 K, w2 = 0.0124 | 1178.69 | – | –
[2], 303.15 K, w2 = 0.01241 | – | – | 52.9
[2], 308.15 K, w2 = 0.00641 | – | – | 49.6
[2], 308.15 K, w2 = 0.00791 | – | – | 50.2
